Read-outs that look alike come from different tables or passages of the source.

The source of these data is patent US9212182B2, “Bicyclic sulfonamide compounds as sodium channel inhibitors” (AMGEN INC., priority 2013, dated 2015).

The target of the experiment is Nav 1.7 (Homo sapiens (Human), UniProt Q15858). Nature of the experiment: in-vitro Nav 1.7 PX (IC50). In kind it is cell-based.
Chain of Nav 1.7 (Q15858 whole entry): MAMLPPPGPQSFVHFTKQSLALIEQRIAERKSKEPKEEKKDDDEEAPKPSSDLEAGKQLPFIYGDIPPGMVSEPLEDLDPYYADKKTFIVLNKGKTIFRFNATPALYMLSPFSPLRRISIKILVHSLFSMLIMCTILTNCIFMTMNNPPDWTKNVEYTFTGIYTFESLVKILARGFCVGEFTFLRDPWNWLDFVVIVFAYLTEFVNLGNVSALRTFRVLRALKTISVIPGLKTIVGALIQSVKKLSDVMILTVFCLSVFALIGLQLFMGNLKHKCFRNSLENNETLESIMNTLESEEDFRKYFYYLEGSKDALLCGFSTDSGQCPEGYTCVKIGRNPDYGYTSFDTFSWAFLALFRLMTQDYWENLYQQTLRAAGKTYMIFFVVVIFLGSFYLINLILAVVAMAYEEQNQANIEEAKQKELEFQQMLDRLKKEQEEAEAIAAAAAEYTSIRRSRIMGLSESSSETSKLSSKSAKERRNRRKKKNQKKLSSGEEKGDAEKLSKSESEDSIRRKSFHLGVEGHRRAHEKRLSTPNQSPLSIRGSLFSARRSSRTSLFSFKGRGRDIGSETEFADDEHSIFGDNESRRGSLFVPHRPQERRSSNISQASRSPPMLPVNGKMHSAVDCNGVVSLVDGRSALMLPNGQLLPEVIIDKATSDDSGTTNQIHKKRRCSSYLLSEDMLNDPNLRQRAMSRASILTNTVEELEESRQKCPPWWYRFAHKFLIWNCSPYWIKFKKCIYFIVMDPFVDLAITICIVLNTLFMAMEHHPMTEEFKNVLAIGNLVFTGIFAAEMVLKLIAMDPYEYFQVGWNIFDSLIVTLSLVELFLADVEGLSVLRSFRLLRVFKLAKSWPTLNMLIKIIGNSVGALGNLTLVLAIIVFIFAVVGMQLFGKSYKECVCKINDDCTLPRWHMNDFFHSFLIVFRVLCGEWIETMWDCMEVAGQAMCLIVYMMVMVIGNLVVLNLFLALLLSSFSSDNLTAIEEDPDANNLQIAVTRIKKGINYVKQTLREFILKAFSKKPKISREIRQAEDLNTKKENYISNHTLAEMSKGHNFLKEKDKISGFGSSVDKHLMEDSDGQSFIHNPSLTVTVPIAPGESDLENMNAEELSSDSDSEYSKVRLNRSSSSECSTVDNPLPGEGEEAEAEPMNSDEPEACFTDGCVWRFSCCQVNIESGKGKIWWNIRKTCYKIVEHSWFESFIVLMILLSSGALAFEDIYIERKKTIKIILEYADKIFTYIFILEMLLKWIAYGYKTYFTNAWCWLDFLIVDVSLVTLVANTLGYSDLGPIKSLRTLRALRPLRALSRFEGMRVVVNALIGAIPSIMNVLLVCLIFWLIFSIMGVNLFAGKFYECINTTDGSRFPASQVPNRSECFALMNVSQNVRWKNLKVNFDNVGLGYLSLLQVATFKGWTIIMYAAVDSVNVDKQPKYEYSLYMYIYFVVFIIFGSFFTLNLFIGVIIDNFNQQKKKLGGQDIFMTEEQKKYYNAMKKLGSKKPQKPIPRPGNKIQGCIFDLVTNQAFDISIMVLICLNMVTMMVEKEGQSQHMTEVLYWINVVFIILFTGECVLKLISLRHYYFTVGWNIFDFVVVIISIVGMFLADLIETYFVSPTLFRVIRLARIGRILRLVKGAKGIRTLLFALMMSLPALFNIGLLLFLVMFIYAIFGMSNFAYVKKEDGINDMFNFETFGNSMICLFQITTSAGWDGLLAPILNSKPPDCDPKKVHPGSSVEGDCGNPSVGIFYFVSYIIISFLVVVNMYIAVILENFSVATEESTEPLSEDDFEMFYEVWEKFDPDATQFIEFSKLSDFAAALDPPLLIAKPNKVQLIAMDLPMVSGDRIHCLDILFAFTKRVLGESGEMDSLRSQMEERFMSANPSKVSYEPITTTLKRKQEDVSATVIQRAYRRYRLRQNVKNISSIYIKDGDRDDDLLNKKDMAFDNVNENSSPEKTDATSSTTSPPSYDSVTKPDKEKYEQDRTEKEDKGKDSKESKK

In the case of `COc1cc(-c2ccc(-n3c(=O)ccc4cc(S(=O)(=O)Nc5ccon5)ccc43)c(OC)c2)ccc1Cl` [Example 1027, 1-(4′-chloro-3,3′-dimethoxy-4-biphenylyl)-N-3-isoxazolyl-2-oxo-1,2-dihydro-6-quinolinesulfonamide], the midpoint of inhibition (in-vitro Nav 1.7 PX data), the IC50, lay at 32 nM. This counts as double-digit nanomolar.

Compound `COc1nc(Oc2ccc(F)c(F)c2)c(Cl)cc1-n1c(=O)ccc2cc(S(=O)(=O)Nc3ccon3)ccc21` [Example 1222, 1-(5-chloro-6-(3,4-difluorophenoxy)-2-methoxy-3-pyridinyl)-N-3-isoxazolyl-2-oxo-1,2-dihydro-6-quinolinesulfonamide] yielded an IC50 of 903 nM.

As to `COc1cc(-c2cccc(F)c2)c(Cl)cc1-n1c(=O)cc(C)c2cc(S(=O)(=O)Nc3ccon3)ccc21` [Example 349, M-1-(2-chloro-3′-fluoro-5-methoxy-[1,1′-biphenyl]-4-yl)-N-(isoxazol-3-yl)-4-methyl-2-oxo-1,2-dihydroquinoline-6-sulfonamide], the IC50 was 10600 nM.

Regarding `COc1cc(-c2cccc(F)c2)c(C)cc1-n1c(=O)ccc2cc(S(=O)(=O)Nc3ccon3)ccc21` (atropisomer, axis not shown; (P)) [Example 427, (P)-1-(3′-fluoro-5-methoxy-2-methyl-4-biphenylyl)-N-3-isoxazolyl-2-oxo-1,2-dihydro-6-quinolinesulfonamide], the IC50 is 25 nM.

Where the note is “in-vitro Nav 1.7 PX data”, `COc1ccc(-c2cc(F)cc(F)c2)cc1-n1c(=O)ccc2cc(S(=O)(=O)Nc3ccon3)ccc21` [Example 865, 1-(3′,5′-difluoro-4-methoxy-3-biphenylyl)-N-3-isoxazolyl-2-oxo-1,2-dihydro-6-quinolinesulfonamide] returned an IC50 of 53 nM.

`COc1cc(-c2cc(Cl)cnc2OC)c(F)cc1-n1c(=O)ccc2cc(S(=O)(=O)Nc3ccnc(C)n3)ccc21` [Example 778, 1-(4-(5-chloro-2-methoxy-3-pyridinyl)-5-fluoro-2-methoxyphenyl)-N-(2-methyl-4-pyrimidinyl)-2-oxo-1,2-dihydro-6-quinolinesulfonamide] had an IC50 (in-vitro Nav 1.7 PX data) of 111 nM.

Turning to `COc1cc(-c2ccc(F)c(F)c2)c(F)cc1-n1c(=O)ccc2cc(S(=O)(=O)Nc3ccnc(C)n3)ccc21` [Example 939, N-(2-methyl-4-pyrimidinyl)-2-oxo-1-(2,3′,4′-trifluoro-5-methoxy-4-biphenylyl)-1,2-dihydro-6-quinolinesulfonamide], where the note is “in-vitro Nav 1.7 PX data”, the IC50 came out at 41 nM. This IC50 is about 2.7-fold lower than that of the compound before.

Compound `COc1cc(-c2cc(OC)c(-n3c(=O)ccc4cc(S(=O)(=O)Nc5cccnn5)ccc43)cc2F)ccc1F` [Example 1007, 1-(2,4′-difluoro-3′,5-dimethoxy-4-biphenylyl)-2-oxo-N-3-pyridazinyl-1,2-dihydro-6-quinolinesulfonamide] registered an IC50 (in-vitro Nav 1.7 PX data) of 131 nM.

Turning to `COc1ccc(-c2cc(F)cc(Cl)c2)cc1-n1c(=O)ccc2cc(S(=O)(=O)Nc3cccnn3)ccc21` [Example 902, 1-(3′-chloro-5′-fluoro-4-methoxy-3-biphenylyl)-2-oxo-N-3-pyridazinyl-1,2-dihydro-6-quinolinesulfonamide], under “in-vitro Nav 1.7 PX data”, inhibition was half-maximal at 77 nM (IC50).

`COc1cc(-c2cc(C)cnc2OC)ccc1-n1c(=O)ccc2cc(S(=O)(=O)Nc3ccon3)ccc21` [Example 1022, N-3-isoxazolyl-1-(2-methoxy-4-(2-methoxy-5-methyl-3-pyridinyl)phenyl)-2-oxo-1,2-dihydro-6-quinolinesulfonamide] displayed an IC50 (in-vitro Nav 1.7 PX data) of 139 nM.

Under “in-vitro Nav 1.7 PX data”, `COc1cc(-c2ccc(-n3c(=O)ccc4cc(S(=O)(=O)Nc5ccon5)ccc43)c(OC)c2)ccc1F` [Example 1017, 1-(4′-fluoro-3,3′-dimethoxy-4-biphenylyl)-N-3-isoxazolyl-2-oxo-1,2-dihydro-6-quinolinesulfonamide] gave an IC50 of 80 nM.

`COc1cc(-c2cnn(C)c2)c(F)cc1-n1c(=O)ccc2cc(S(=O)(=O)Nc3ccon3)ccc21` [Example 405, 1-(5-fluoro-2-methoxy-4-(1-methyl-1H-pyrazol-4-yl)phenyl)-N-3-isoxazolyl-2-oxo-1,2-dihydro-6-quinolinesulfonamide]: it took 14600 nM to reach half-maximal inhibition (in-vitro PatchXpress (PX)) (IC50).

The compound `COc1cc(-c2cc(F)cc(Cl)c2)c(C#N)cc1-n1c(=O)ccc2cc(S(=O)(=O)Nc3ccon3)ccc21` (atropisomer, axis not shown; (M)) [Example 434, (M)-1-(3′-chloro-2-cyano-5′-fluoro-5-methoxy-4-biphenylyl)-N-3-isoxazolyl-2-oxo-1,2-dihydro-6-quinolinesulfonamide] came in with an IC50 of 1840 nM.

Regarding `COc1cc(-c2cccc(OC(F)F)c2)ccc1-n1c(=O)ccc2cc(S(=O)(=O)Nc3ccon3)ccc21` [Example 786, 1-(3′-(difluoromethoxy)-3-methoxy-4-biphenylyl)-N-3-isoxazolyl-2-oxo-1,2-dihydro-6-quinolinesulfonamide], it took 48 nM to reach half-maximal inhibition (in-vitro Nav 1.7 PX data) (IC50).

For the compound “1-(3′-(difluoromethoxy)-2-fluoro-5-methoxy-4-biphenylyl)-N-(5-fluoro-2-pyrimidinyl)-2-oxo-1,2-dihydro-6-quinolinesulfonamide [Example 907]”, where the note is “in-vitro Nav 1.7 PX data”, half-maximal inhibition (IC50) required 191 nM.

Consider `COc1cc(Br)c(F)cc1-n1c(=O)ccc2cc(S(=O)(=O)Nc3cc(OC4CCC4)ncn3)ccc21` (atropisomer, axis not shown; (P)) [Example 1188, (P)-1-(4-bromo-5-fluoro-2-methoxyphenyl)-N-(6-(cyclobutyloxy)-4-pyrimidinyl)-2-oxo-1,2-dihydro-6-quinolinesulfonamide], for which the IC50 is 10600 nM.

In the case of `COc1cc(-c2ccc(F)c(F)c2)ccc1-n1c(=O)ccc2cc(S(=O)(=O)Nc3ncco3)ccc21` [Example 894, 1-(3′,4′-difluoro-3-methoxy-4-biphenylyl)-N-1,3-oxazol-2-yl-2-oxo-1,2-dihydro-6-quinolinesulfonamide], the IC50 (in-vitro Nav 1.7 PX data) was 83 nM.

`COc1cc(-c2cc(OC)c(-n3c(=O)ccc4cc(S(=O)(=O)Nc5ncccn5)ccc43)cc2C)ccc1F` [Example 960, 1-(4′-fluoro-3′,5-dimethoxy-2-methyl-4-biphenylyl)-2-oxo-N-2-pyrimidinyl-1,2-dihydro-6-quinolinesulfonamide] came in with a half-maximal inhibitory concentration (IC50) (in-vitro Nav 1.7 PX data) of 36 nM.

The compound `COc1nc(OCc2cc(F)c(F)c(F)c2)c(Cl)cc1-n1c(=O)ccc2cc(S(=O)(=O)Nc3ccon3)ccc21` [Example 1218, 1-(5-chloro-2-methoxy-6-((3,4,5-trifluorobenzyl)oxy)-3-pyridinyl)-N-3-isoxazolyl-2-oxo-1,2-dihydro-6-quinolinesulfonamide] returned an IC50 of 39 nM.

Take `COc1ccc(-c2ccc(C(F)(F)F)cc2)cc1-n1c(=O)ccc2cc(S(=O)(=O)Nc3ccon3)ccc21` [Example 843, N-3-isoxazolyl-1-(4-methoxy-4′-(trifluoromethyl)-3-biphenylyl)-2-oxo-1,2-dihydro-6-quinolinesulfonamide]: the IC50 (in-vitro Nav 1.7 PX data) was found to be 23 nM.

In turn, `COc1cc(-c2cccc(C)c2)c(F)cc1-n1c(=O)ccc2cc(S(=O)(=O)Nc3ccon3)ccc21` (atropisomer, axis not shown; (M)) [Example 523, (M)-1-(2-fluoro-5-methoxy-3′-methyl-4-biphenylyl)-N-3-isoxazolyl-2-oxo-1,2-dihydro-6-quinolinesulfonamide] displayed an IC50 (in-vitro PatchXpress (PX)) of 4740 nM. In other words, the single-digit micromolar range.

Regarding `COc1cc(-c2cc(F)cc(F)c2F)c(F)cc1-n1c(=O)ccc2cc(S(=O)(=O)Nc3ccon3)ccc21` (atropisomer, axis not shown; (M)) [Example 515, (M)-N-3-isoxazolyl-2-oxo-1-(2,2′,3′,5′-tetrafluoro-5-methoxy-4-biphenylyl)-1,2-dihydro-6-quinolinesulfonamide], the IC50 (in-vitro PatchXpress (PX)) worked out at 5160 nM.

Compound `COc1cc(-c2cccc(C)c2)c(F)cc1-n1c(=O)ccc2cc(S(=O)(=O)Nc3ncon3)ccc21` [Example 1114, 1-(2-fluoro-5-methoxy-3′-methyl-4-biphenylyl)-N-1,2,4-oxadiazol-3-yl-2-oxo-1,2-dihydro-6-quinolinesulfonamide] registered an IC50 (in-vitro Nav 1.7 PX data) of 35 nM.

The compound `COc1cc(-c2cccc(OC)c2C)ccc1-n1c(=O)ccc2cc(S(=O)(=O)Nc3ccon3)ccc21` [Example 787, 1-(3,3′-dimethoxy-2′-methyl-4-biphenylyl)-N-3-isoxazolyl-2-oxo-1,2-dihydro-6-quinolinesulfonamide] came in with an IC50 (in-vitro Nav 1.7 PX data) of 52 nM.

Regarding `COc1cc(-c2ccc(C)c(Cl)c2)ccc1-n1c(=O)ccc2cc(S(=O)(=O)Nc3ccon3)ccc21` (atropisomer, axis not shown; (M)) [Example 588, (M)-1-(3′-chloro-3-methoxy-4′-methyl-4-biphenylyl)-N-3-isoxazolyl-2-oxo-1,2-dihydro-6-quinolinesulfonamide], the IC50 was 1020 nM.

For `COc1cc(-c2cc(F)cc(Cl)c2)c(F)cc1-n1c(=O)ccc2cc(S(=O)(=O)Nc3ncon3)ccc21` (atropisomer, axis not shown; (P)) [Example 326, (P)-1-(3′-chloro-2,5′-difluoro-5-methoxy-4-biphenylyl)-N-1,2,4-oxadiazol-3-yl-2-oxo-1,2-dihydro-6-quinolinesulfonamide], the IC50 is 5 nM.

Compound `COc1cc(-c2ccc(C(F)(F)F)cc2)c(F)cc1-n1c(=O)ccc2cc(S(=O)(=O)Nc3cc(C)ncn3)ccc21` [Example 798, 1-(2-fluoro-5-methoxy-4′-(trifluoromethyl)-4-biphenylyl)-N-(6-methyl-4-pyrimidinyl)-2-oxo-1,2-dihydro-6-quinolinesulfonamide] registered an IC50 (in-vitro Nav 1.7 PX data) of 49 nM.

Consider `COc1cc(F)cc(-c2ccc(OC)c(-n3c(=O)ccc4cc(S(=O)(=O)Nc5ccon5)ccc43)c2)c1` [Example 853, 1-(3′-fluoro-4,5′-dimethoxy-3-biphenylyl)-N-3-isoxazolyl-2-oxo-1,2-dihydro-6-quinolinesulfonamide], for which the IC50 (in-vitro Nav 1.7 PX data) amounted to 60 nM.

Consider `COc1cc(-c2cccc(Cl)c2OC)c(F)cc1-n1c(=O)ccc2cc(S(=O)(=O)Nc3ccon3)ccc21` [Example 747, 1-(3′-chloro-2-fluoro-2′,5-dimethoxy-4-biphenylyl)-N-3-isoxazolyl-2-oxo-1,2-dihydro-6-quinolinesulfonamide], for which, for the setting “in-vitro Nav 1.7 PX data”, the IC50 was found to be 16 nM. Against the preceding compound, the IC50 is about 3.8-fold lower.

In turn, `COc1ccc(-c2ccc(F)cc2F)cc1-n1c(=O)ccc2cc(S(=O)(=O)Nc3ccon3)ccc21` [Example 837, 1-(2′,4′-difluoro-4-methoxy-3-biphenylyl)-N-3-isoxazolyl-2-oxo-1,2-dihydro-6-quinolinesulfonamide] came in with an IC50 (in-vitro Nav 1.7 PX data) of 178 nM.

For orientation: IC50 means the point on the concentration scale where inhibition reaches its midpoint. High values mean weaker potency, low ones greater potency.
